Source: patent US10934283B2, “COMT inhibiting methods and compositions” (LIEBER INSTITUTE FOR BRAIN DEVELOPMENT, priority 2015, dated 2021)

molecular target: T1, catechol-O-methyltransferase (COMT) (Homo sapiens, UniProt P21964); assay: COMT inhibition assay (HTRF, production of SAH from SAM); format: biochemical; conditions: table does not say MB-COMT or S-COMT
T1 construct: M51A variant) was expressed in HEK 293F cells
T1 sequence (P21964 52-271 limits assumed): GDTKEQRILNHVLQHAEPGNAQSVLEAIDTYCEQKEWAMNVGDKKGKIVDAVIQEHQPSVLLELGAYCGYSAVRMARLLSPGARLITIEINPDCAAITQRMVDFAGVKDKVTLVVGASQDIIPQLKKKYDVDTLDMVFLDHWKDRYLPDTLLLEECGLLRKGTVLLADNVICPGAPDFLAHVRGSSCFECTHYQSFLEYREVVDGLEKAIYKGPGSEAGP
Method: The ability of compounds to inhibit the activity of catechol-O-methyltransferase (COMT) was determined by a homogenous time-resolved fluorescent (HTRF) assay (Lina et al, 2012; kit from CisBio, Codolet, France). This assay measures the production of S-adenosyl homocysteine (SAH) from the methyl donor S-adenosyl methionine. Recombinant human membrane bound COMT (MB-COMT; M51A variant) was expressed in HEK 293F cells using 293Fectin (Life Technologies, Gent, Belgium) and membranes prepared. The membranes were re-suspended in buffer (20 mM Tris/HCl pH 7; 10 mM glycerol; 2 mM MgCl2; 10 mM NaCl), aliquoted and stored at −80° C. Recombinant human soluble COMT(S-COMT), Val158 variant and a hexa-His tag on the N-terminus, was purified using Ni-NTA chromatography, the His tag removed and stored in buffer as above.
For the human MB-COMT assay, membranes (62 ng/well) were incubated with SAM (20 μM final, CisBio) and dopamine (1.5 μM final; Sigma H8502, Diegem, Belgium) in the presence or absence of varying concentrations (typically 10 concentrations ranging from 10 ? M to 0.1 nM) of compound for 40 min at 37° C. in 384-well microtiter plates (10 ? l per well final volume). The reaction was terminated by the addition of acylation buffer and the amount of SAH produced determined according to manufacturer's instructions. Specific inhibition as that inhibited by a high concentration of tolcapone and all experiments were validated using a control curve to tolcapone.
The human S-COMT assay was performed as above except that 0.15 ng enzyme/well was incubated with SAM ([…]) and dopamine (100 μM final) for 15 min at 37° C. and SAH production determined.
HTRF readings were performed using a Perkin Elmer Envision and results expressed as concentration of SAH produced using a standard curve. Results were analyzed using non-linear regression to the 4-parameter logistic equation and pIC50 (−log 10 concentration of drug which inhibits enzyme activity/SAH production by 50%) determined.

Structure (SMILES)	Activity range (pIC50)
O=c1cc2n(cc1O)CCN(Cc1ccccc1C(F)(F)F)C2 [Example 44, 7-hydroxy-2-[2-(trifluoromethyl)benzyl]-1,2,3,4-tetrahydro-8H-pyrido[1,2-a]pyrazin-8-one]	+++ (three plus signs (+++) is associated with a pIC50 of above about 7)
CCCC(c1ccccc1)N1CCn2cc(O)c(=O)cc2C1 (stereo not drawn) [Example 93, 7-hydroxy-2-(1-phenylbutyl)-1,2,3,4-tetrahydro-8H-pyrido[1,2-a]pyrazin-8-one]	++ (two plus signs (++) is associated with a pIC50 of from about 6 to 7)
CC1(C)CCCC2=C1CC(CN1CCn3cc(O)c(=O)cc3C1)CC2 (stereo not drawn) [Example 24, 2-[(8,8-dimethyl-1,2,3,4,5,6,7,8-octahydronaphthalen-2-yl)methyl]-7-hydroxy-1,2,3,4-tetrahydro-8H-pyrido[1,2-a]pyrazin-8-one]	+++ (three plus signs (+++) is associated with a pIC50 of above about 7)
Cc1ccccc1C(C)N1CCn2cc(O)c(=O)cc2C1 (stereo not drawn) [Example 67, 7-hydroxy-2-[1-(2-methylphenyl)ethyl]-1,2,3,4-tetrahydro-8H-pyrido[1,2-a]pyrazin-8-one]	+++ (three plus signs (+++) is associated with a pIC50 of above about 7)
CC(c1ccc(F)cc1)N1CCn2cc(O)c(=O)cc2C1 (stereo not drawn) [Example 99, 2-[1-(4-fluorophenyl)ethyl]-7-hydroxy-1,2,3,4-tetrahydro-8H-pyrido[1,2-a]pyrazin-8-one]	++ (two plus signs (++) is associated with a pIC50 of from about 6 to 7)
O=c1cc2n(cc1O)CCN(Cc1ccccc1OCc1ccccc1)C2 [Example 55, 2-[2-(benzyloxy)benzyl]-7-hydroxy-1,2,3,4-tetrahydro-8H-pyrido[1,2-a]pyrazin-8-one]	++ (two plus signs (++) is associated with a pIC50 of from about 6 to 7)
O=c1cc2n(cc1O)CCN(Cc1ccc(Oc3ccccc3)cc1)C2 [Example 47, 7-hydroxy-2-(4-phenoxybenzyl)-1,2,3,4-tetrahydro-8H-pyrido[1,2-a]pyrazin-8-one]	+++ (three plus signs (+++) is associated with a pIC50 of above about 7)
COc1ccc(CN2CCn3cc(O)c(=O)cc3C2)cc1 [Example 50, 7-hydroxy-2-(4-methoxybenzyl)-1,2,3,4-tetrahydro-8H-pyrido[1,2-a]pyrazin-8-one]	++ (two plus signs (++) is associated with a pIC50 of from about 6 to 7)
Cc1ccc(C)c(C(C)N2CCn3cc(O)c(=O)cc3C2)c1 (stereo not drawn) [Example 87, 2-[1-(2,5-dimethylphenyl)ethyl]-7-hydroxy-1,2,3,4-tetrahydro-8H-pyrido[1,2-a]pyrazin-8-one]	+++ (three plus signs (+++) is associated with a pIC50 of above about 7)
CC(c1ccccc1)N1CCn2cc(O)c(=O)cc2C1 (stereo not drawn) [Example 15, 7-hydroxy-2-(1-phenylethyl)-1,2,3,4-tetrahydro-8H-pyrido[1,2-a]pyrazin-8-one]	++ (two plus signs (++) is associated with a pIC50 of from about 6 to 7)
O=c1c(O)cn2c(c1I)CN(Cc1ccccc1Cl)CC2 [Example 140, 2-[(2-chlorophenyl)methyl]-7-hydroxy-9-iodo-3,4-dihydro-1H-pyrido[1,2-a]pyrazin-8-one]	+ (a single plus (+) is associated with a pIC50 of from about 4.5 to 6)
O=c1cc2n(cc1O)CCN(C(c1ccccc1)C(F)F)C2 (stereo not drawn) [Example 107, 2-(2,2-difluoro-1-phenyl-ethyl)-7-hydroxy-3,4-dihydro-1H-pyrido[1,2-a]pyrazin-8-one]	+++ (three plus signs (+++) is associated with a pIC50 of above about 7)
O=c1cc2n(cc1O)CCN(Cc1cc3ccccc3n1S(=O)(=O)c1ccccc1)C2 [Example 29, 7-hydroxy-2-{[1-(phenylsulfonyl)-1H-indol-2-yl]methyl}-1,2,3,4-tetrahydro-8H-pyrido[1,2-a]pyrazin-8-one]	+++ (three plus signs (+++) is associated with a pIC50 of above about 7)
CC1Cn2cc(O)c(=O)cc2CN1Cc1ccc(OC(F)(F)F)cc1 (stereo not drawn) [Example 130, 7-hydroxy-3-methyl-2-[4-(trifluoromethoxy)benzyl]-1,2,3,4-tetrahydro-8H-pyrido[1,2-a]pyrazin-8-one]	++ (two plus signs (++) is associated with a pIC50 of from about 6 to 7)
O=c1cc2n(cc1O)CCN(C(Cc1ccccc1)c1ccccc1)C2 (stereo not drawn) [Example 88, 2-(1,2-diphenylethyl)-7-hydroxy-1,2,3,4-tetrahydro-8H-pyrido[1,2-a]pyrazin-8-one]	+++ (three plus signs (+++) is associated with a pIC50 of above about 7)
O=c1cc2n(cc1O)CCN(Cc1cccc3cccnc13)C2c1ccc(F)cc1 (stereo not drawn) [Example 123, 1-(4-fluorophenyl)-7-hydroxy-2-(quinolin-8-ylmethyl)-1,2,3,4-tetrahydro-8H-pyrido[1,2-a]pyrazin-8-one]	+++ (three plus signs (+++) is associated with a pIC50 of above about 7)
O=c1cc2n(cc1O)CCN(Cc1ccc(F)cc1Cl)C2 [Example 61]	+++ (three plus signs (+++) is associated with a pIC50 of above about 7)
O=c1cc2n(cc1O)CCN(Cc1nc3ccccc3s1)C2 [Example 38, 2-(1,3-benzothiazol-2-ylmethyl)-7-hydroxy-1,2,3,4-tetrahydro-8H-pyrido[1,2-a]pyrazin-8-one]	++ (two plus signs (++) is associated with a pIC50 of from about 6 to 7)
O=c1cc2n(cc1O)CCN(CC1CCCCC1)C2 [Example 22, 2-(cyclohexylmethyl)-7-hydroxy-1,2,3,4-tetrahydro-8H-pyrido[1,2-a]pyrazin-8-one]	++ (two plus signs (++) is associated with a pIC50 of from about 6 to 7)
Cc1cccc(C)c1CN1CCn2cc(O)c(=O)cc2C1 [Example 27, 2-(2,6-dimethylbenzyl)-7-hydroxy-1,2,3,4-tetrahydro-8H-pyrido[1,2-a]pyrazin-8-one]	+++ (three plus signs (+++) is associated with a pIC50 of above about 7)
O=c1cc2n(cc1O)CCN(Cc1ccc(OC(F)(F)F)cc1)C2 [Example 8, 7-hydroxy-2-[4-(trifluoromethoxy)benzyl]-1,2,3,4-tetrahydro-8H-pyrido[1,2-a]pyrazin-8-one]	+++ (three plus signs (+++) is associated with a pIC50 of above about 7)
O=c1cc2n(cc1O)CCN(CC(c1ccccc1)c1ccccc1)C2 [Example 19, 2-(2,2-diphenylethyl)-7-hydroxy-1,2,3,4-tetrahydro-8H-pyrido[1,2-a]pyrazin-8-one]	++ (two plus signs (++) is associated with a pIC50 of from about 6 to 7)
O=c1cc2n(cc1O)CCN(C1CC(c3ccccc3)Oc3ccccc31)C2 (stereo not drawn) [Example 80, 7-hydroxy-2-(2-phenyl-3,4-dihydro-2H-chromen-4-yl)-1,2,3,4-tetrahydro-8H-pyrido[1,2-a]pyrazin-8-one]	++ (two plus signs (++) is associated with a pIC50 of from about 6 to 7)
CCc1ccc(CN2CCn3cc(O)c(=O)cc3[C@@H]2c2ccccc2)cc1 (single isomer, unassigned) [Example 119]	+++ (three plus signs (+++) is associated with a pIC50 of above about 7)
O=c1cc2n(cc1O)CCN(Cc1ccccc1)C2Cc1ccccc1 (stereo not drawn) [Example 115, 1,2-dibenzyl-7-hydroxy-1,2,3,4-tetrahydro-8H-pyrido[1,2-a]pyrazin-8-one]	++ (two plus signs (++) is associated with a pIC50 of from about 6 to 7)
Cc1ccc(CN2CCn3cc(O)c(=O)cc3C2)c(C)c1 [Example 9, 2-(2,4-dimethylbenzyl)-7-hydroxy-1,2,3,4-tetrahydro-8H-pyrido[1,2-a]pyrazin-8-one]	+++ (three plus signs (+++) is associated with a pIC50 of above about 7)
CCCCC(c1ccccc1)N1CCn2cc(O)c(=O)cc2C1 (stereo not drawn) [Example 78, 7-hydroxy-2-(1-phenylpentyl)-1,2,3,4-tetrahydro-8H-pyrido[1,2-a]pyrazin-8-one]	+++ (three plus signs (+++) is associated with a pIC50 of above about 7)
